pKi: −log10 of the molar value.

The test addresses T1, Dimer of Gag-Pol polyprotein [489-587] (Human immunodeficiency virus 1, UniProt P12497).
T1 construct: 489-587
As to the kind of experiment: Protease Inhibition Assay. The note with it: pH 5; 30 °C. How it is done:
A fluorimetric assay was used to determine the effects of the inhibitors on HIV-1 protease. This assay used an internally quenched fluorescent peptide substrate. The measurements were performed in 96-well plates with a Fluoroscan plate reader. Excitation and emission wavelengths were 355 nm and 500 nm, respectively.
Consider `O=C(N[C@H]1c2ccccc2C[C@H]1O)[C@H](Sc1ccccc1F)[C@H](O)[C@@H](O)[C@@H](Sc1ccccc1F)C(=O)N[C@H]1c2ccccc2C[C@H]1O` [(2R,3R,4R,5R)-2,5-bis[(2-fluorophenyl)sulfanyl]-3,4-dihydroxy-N,N'-bis[(1S,2R)-2-hydroxy-2,3-dihydro-1H-inden-1-yl]hexanediamide], for which the pKi was 8.64.

Turning to `C=CCS[C@@H](C(=O)N[C@H]1c2ccccc2C[C@H]1O)[C@H](O)[C@@H](O)[C@@H](SCC=C)C(=O)N[C@H]1c2ccccc2C[C@H]1O` [(2R,3R,4R,5R)-3,4-dihydroxy-N,N'-bis[(1S,2R)-2-hydroxy-2,3-dihydro-1H-inden-1-yl]-2,5-bis(prop-2-en-1-ylsulfanyl)hexanediamide], the pKi is 7.80.

`O=C(N[C@H]1c2ccccc2C[C@H]1O)[C@H](SCc1ccccc1F)[C@H](O)[C@@H](O)[C@@H](SCc1ccccc1F)C(=O)N[C@H]1c2ccccc2C[C@H]1O` [N1,N6-Di[(2R)-hydroxy-(1S)-indanyl]-(2R,3R,4R,5R)-2,5-di(2-fluorobenzylsulfanyl)-3,4-dihydroxyhexanediamide] had a pKi of 8.37.

In turn, `O=C(N[C@H]1c2ccccc2C[C@H]1O)[C@H](SCc1ccccc1)[C@H](O)[C@@H](O)[C@@H](SCc1ccccc1)C(=O)N[C@H]1c2ccccc2C[C@H]1O` [N1,N6-Di[(2R)-hydroxy-(1S)-indanyl]-(2R,3R,4R,5R)-2,5-di(benzylsulfanyl)-3,4-dihydroxyhexanediamide] had a pKi of 8.55.

For the molecule `O=C(N[C@H]1c2ccccc2C[C@H]1O)[C@H](Sc1ccccn1)[C@H](O)[C@@H](O)[C@@H](Sc1ccccn1)C(=O)N[C@H]1c2ccccc2C[C@H]1O` [N1,N6-Di[(2R)-hydroxy-(1S)-indanyl]-(2R,3R,4R,5R)-3,4-dihydroxy-2,5-di(2-pyridylsulfanyl)hexanediamide], the pKi was 6.55.

`O=C(N[C@H]1c2ccccc2C[C@H]1O)[C@H](Sc1ccccc1)[C@H](O)[C@@H](O)[C@@H](Sc1ccccc1)C(=O)N[C@H]1c2ccccc2C[C@H]1O` [N1,N6-Di[(2R)-hydroxy-(1S)-indanyl]-(2R,3R,4R,5R)-3,4-dihydroxy-2,5-di(phenylsulfanyl)hexanediamide]: the pKi was 8.74.

One may read the pKi as −log10 of the Ki, conventionally taken in molar units.
